Measured values published in patent publication US11572590B2, “Methods for evaluating tumor cell spheroids using 3D microfluidic cell culture device” (Dana-Farber Cancer Institute, Inc., priority 2017, dated 2023).
Like-named read-outs stand apart in the source and are kept apart here.

Columns and labels:
Assay type in all cases: biochemical
[1] = target: T1, IKKε (IKBKE) (Homo sapiens, UniProt Q14164); assay: SelectScreen Kinase Profiling, IC50 for IKKε (IKBKE); details: ATP Km app, ZLYTE; for inhibition: IKBKE (IKK epsilon)
T1 sequence (Q14164 1-716): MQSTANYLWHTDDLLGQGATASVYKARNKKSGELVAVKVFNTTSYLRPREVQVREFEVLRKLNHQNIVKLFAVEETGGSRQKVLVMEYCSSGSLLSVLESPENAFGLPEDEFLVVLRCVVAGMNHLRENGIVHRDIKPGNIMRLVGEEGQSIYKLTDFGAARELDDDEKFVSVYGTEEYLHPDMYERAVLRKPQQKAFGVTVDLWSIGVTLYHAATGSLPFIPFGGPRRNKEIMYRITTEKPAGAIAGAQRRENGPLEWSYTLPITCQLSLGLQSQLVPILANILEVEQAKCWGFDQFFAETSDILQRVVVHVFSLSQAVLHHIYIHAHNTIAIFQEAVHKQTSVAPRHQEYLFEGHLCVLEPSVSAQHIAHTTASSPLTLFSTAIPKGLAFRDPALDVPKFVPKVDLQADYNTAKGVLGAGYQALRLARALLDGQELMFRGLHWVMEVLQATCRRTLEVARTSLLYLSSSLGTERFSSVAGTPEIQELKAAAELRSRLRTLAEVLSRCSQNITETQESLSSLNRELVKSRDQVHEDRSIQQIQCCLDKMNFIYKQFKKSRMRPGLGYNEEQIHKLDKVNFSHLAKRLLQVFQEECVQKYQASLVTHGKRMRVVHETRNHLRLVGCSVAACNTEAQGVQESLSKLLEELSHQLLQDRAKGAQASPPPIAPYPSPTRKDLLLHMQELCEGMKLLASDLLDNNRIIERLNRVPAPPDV
Method: (§1) Biochemical single point inhibition and IC50 concentrations for TBK1, IKKε (IKBKE), and off-target kinases were determined at ThermoFisher Scientific using SelectScreen Kinase Profiling Services (Madison, Wis., USA) (Tables S4A and S4B-1-7). To determine cellular potency, the human colorectal cancer carcinoma cell line HCT116 (ATCC, Manassas, Va.) was maintained in T175 flasks in complete RPMI medium; RPMI 1640 supplemented with 10% FBS, 1× Penicillin-Streptomycin solution and 1×MEM (non-essential amino acids). HCT116 cells were grown to 90-95% confluency in T175 flasks containing complete RPMI medium and transfected in bulk using Lipofectamine 2000 (Invitrogen, Carlsbad, Calif.) with 70 μg of ISG54-luciferase reporter plasmid (Elim Biopharmaceuticals Inc., Hayward, Calif.). The reporter plasmid contains a luciferase gene expression cassette under the transcriptional regulation of the promoter of the human interferon stimulated gene 54 (ISG54). Transfection of the cells was allowed to take place for 6 hours, after which the cells were harvested by treatment with 0.25% trypsin EDTA (Corning Inc., Corning, N.Y.). Trypsinized cells were added to 384-well poly-d-lysine treated black clear bottom tissue culture assay plates (Greiner Bio-One GmbH, Kremsmünster, Austria) at a density of 20,000 cells/well in 80 μL of complete RPMI medium and incubated overnight. After 16-18 hours post-transfection, the assay plates were washed with PBS (Corning Inc., Corning, N.Y.), followed by addition of 80 μL/well of serum-free RPMI 1640 medium containing 1× Penicillin-Streptomycin solution, 1×MEM and 350 nL of DMSO or titrations of Compound 1. Compound 1 titrations were generated by 1.5-fold dilution steps in two overlapping serial dilution series to generate a 40-point compound dose range. After incubation at 37° C. for 1 hour, the cells were stimulated with Poly(I:C) (InvivoGen, San Diego, Calif.) at a final concentration of 15 μg/mL in Optimem media (Life Technologies, Rockville, Md.). The assay plates were incubated for 5 hours at 37° C., followed by addition of One-Glo luciferase firefly reagent (Promega, Madison, Wis.) at 1:1 volume/well and luminescence was measured in an EnVision Multilabel Plate Reader (PerkinElmer, Santa Clara, Calif.). The EC50 values were calculated from the fit of the dose-response curves to a four-parameter equation. All EC50 values represent geometric mean values of a minimum of four determinations.

[2] = target: off-target kinases (Homo sapiens, UniProt P36888); assay: SelectScreen Kinase Profiling, single point inhibition and IC50 for off-target kinases; design: other: FLT3 ITD; 1000 μM; details: FLT3 ITD; 1000 μM; LanthaScreen Binding
Method: as §1, with “Compound 1 titrations were generated by 1.5-fold dilution steps in two overlapping serial dilution series to generate a 40-point compound dose range. After incubation at 37° C. for 1 hour, the cells were stimulated with Poly(I:C) (InvivoGen, San Diego, Calif.) at a final concentration of 15 μg/mL in Optimem media (Life Technologies, Rockville, Md.).” left out, “All EC50 values represent geometric mean values of a minimum of four determinations.” left out

[3] = target: off-target kinases (Homo sapiens, UniProt P07948); assay: as above; design: other: LYN B; 1000 μM; ATP Km app; ZLYTE; details: LYN B, ATP Km app, ZLYTE
Method: as §1, with “Compound 1 titrations were generated by 1.5-fold dilution steps in two overlapping serial dilution series to generate a 40-point compound dose range. After incubation at 37° C. for 1 hour, the cells were stimulated with Poly(I:C) (InvivoGen, San Diego, Calif.) at a final concentration of 15 μg/mL in Optimem media (Life Technologies, Rockville, Md.).” left out, “All EC50 values represent geometric mean values of a minimum of four determinations.” left out

off-target kinases (Homo sapiens, UniProt P07948), sequence (P07948 1-491 isoform P07948-2): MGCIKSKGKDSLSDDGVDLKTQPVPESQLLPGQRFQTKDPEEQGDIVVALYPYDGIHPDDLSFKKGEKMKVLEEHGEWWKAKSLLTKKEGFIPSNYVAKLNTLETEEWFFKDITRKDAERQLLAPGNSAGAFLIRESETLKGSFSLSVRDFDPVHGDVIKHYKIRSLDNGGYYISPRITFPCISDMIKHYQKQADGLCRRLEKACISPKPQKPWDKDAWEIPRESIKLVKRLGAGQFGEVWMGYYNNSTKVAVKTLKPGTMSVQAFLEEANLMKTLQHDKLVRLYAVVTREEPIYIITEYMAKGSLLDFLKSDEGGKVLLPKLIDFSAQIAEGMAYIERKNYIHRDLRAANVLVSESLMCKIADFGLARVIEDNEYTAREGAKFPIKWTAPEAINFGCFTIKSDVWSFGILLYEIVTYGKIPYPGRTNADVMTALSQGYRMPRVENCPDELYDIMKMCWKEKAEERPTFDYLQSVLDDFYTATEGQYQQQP

N#Cc1cc(-c2ncnc(Nc3ccc(N4CCN(C5COC5)CC4)cc3)n2)ccc1OC1CCOCC1 [Compound 1, 5-(4-((4-(4-(oxetan-3-yl)piperazin-1-yl)phenyl)amino)-1,3,5-triazin-2-yl)-2-((tetrahydro-2H-pyran-4-yl)oxy)benzonitrile]
inhibition ([1]; read-out: % Inhibition 1): 106% | inhibition ([1]; read-out: % Inhibition 2): 103% | inhibition ([1]; read-out: % Inhibition Avg): 105% | Hillslope [1]: 1.06 | IC50 [1]: 5.59 nM | fold selectivity (IKBKE) ([1]; IC50 relative to IKBKE IC50): 1.0 fold | fold selectivity (TBK1) ([1]; IC50 relative to TBK1 IC50): 5.4 fold | % Inhibition 1 [2]: 64% | % Inhibition 2 [2]: 62% | % Inhibition Avg [2]: 63% | inhibition ([3]; read-out: % Inhibition 1): 56% | inhibition ([3]; read-out: % Inhibition 2): 50% | inhibition ([3]; read-out: % Inhibition Avg): 53%
